Experimental data from patent publication US20250381180A1, “METHODS OF TREATING OR PREVENTING OVERACTIVE BLADDER SYNDROME” (Purdue Pharma L.P., priority 2022, published 2025).

Legend:
[1] = Phase 1 single-dose pharmacokinetics, mild renal impairment vs normal renal function; assay type: in vivo, human; settings: single oral 1.0-mg immediate-release tablet
Experimental: This was a phase 1, nonrandomized, open-label, parallel-group, single-dose study. A total of 20 subjects (10 subjects with mild renal impairment and 10 healthy subjects with normal renal function) were studied.
At screening, subjects were assigned to a study group according to estimated glomerular filtration rate (eGFR), calculated using the 2021 Chronic Kidney Disease Collaboration (CKD-EPI 2021) formula as follows, in Table 11: […]
Subjects remained fasted for 4 hours after study drug dosing (except diabetic subjects, who were allowed a light breakfast at 2 hours after study drug dosing as judged by the investigator). Except as part of study drug administration, subjects restricted their consumption of water for 2 hours before dosing and for 2 hours after dosing. At all other times during the study, subjects were able to consume water ad libitum.

[2] = Urine concentrations in humans after a single oral dose; assay type: in vivo, human; settings: LLOQ 229 nM
[3] = tested on: conscious BOO rats; test: Cystometric parameters in conscious bladder outlet obstruction (BOO) rats; assay type: in vivo, rat
Experimental: Test substance effects were compared to those of the reference substance, mirabegron, marketed for overactive bladder.
• At W-6, a partial ligature of the urethra was performed. • At W-6, during 3 consecutive days, rats were treated daily with gentamycin and Ketofen® The bladder was emptied manually once a day. • From W-6 to W-1 animals were monitored and weighed once per week. • At W0 (D-2), catheters were implanted under isoflurane anesthesia. • At D0, cystometry was performed.
Appropriate amount of Cpd (IA) was weighed and dissolved in vehicle to obtain the dosing solution with the target concentration of 3 mg/mL (as free base). […]
[…] Mirabegron (from Kemprotec) was prepared fresh on the day of administration at a final concentration of 2 mg/mL (free base form). Appropriate mass of mirabegron was weighed and dissolved in vehicle (0.5% MC) at room temperature.

[4] = 3 mg/kg i.v., 0-90 min entire period
[5] = 3 mg/kg i.v., 60-90 min interval period
[6] = i.g., 60-90 min interval period

plasma concentrations at 72 and 96 hours ([1]; all subjects): all below the limit of quantitation
plasma concentrations over time, mild renal impairment versus normal renal function ([1]; n=10 per group): comparable
Urine Conc., mean ([2]; single oral dose 0.2 mg, 16 to 24 h): BCL
Urine Conc., mean ([2]; single oral dose 0.2 mg, 24 to 32 h): BCL
Urine Conc., mean ([2]; single oral dose 0.2 mg, 32 to 40 h): BCL
Urine Conc., mean ([2]; single oral dose 0.2 mg, 40 to 48 h): BCL
Urine Conc., mean ([2]; single oral dose 0.6 mg, 16 to 24 h): BCL
Urine Conc., mean ([2]; single oral dose 0.6 mg, 24 to 32 h): BCL
Urine Conc., mean ([2]; single oral dose 0.6 mg, 32 to 40 h): BCL
Urine Conc., mean ([2]; single oral dose 0.6 mg, 40 to 48 h): BCL
Urine Conc., mean ([2]; single oral dose 2 mg, 16 to 24 h): 409 nM
Urine Conc., mean ([2]; single oral dose 2 mg, 24 to 32 h): BCL
Urine Conc., mean ([2]; single oral dose 2 mg, 32 to 40 h): BCL
Urine Conc., mean ([2]; single oral dose 2 mg, 40 to 48 h): BCL
Urine Conc., mean ([2]; single oral dose 10 mg, 16 to 24 h): 1004 nM
Urine Conc., mean ([2]; single oral dose 10 mg, 40 to 48 h): BCL
SMILES: O=C(O)c1nc2ccccc2n([C@H]2C[C@H]3CCC[C@@H](C2)N3C2CC3CCCC(C3)C2)c1=O (stereo partly shown) [Cpd (IA)]
AM (mmHg or % variation), effect versus vehicle [3, 4]: not significantly modified
AM, effect versus basal [3, 4]: did not significantly modify
BC expressed in % variation from basal, effect versus vehicle [3, 4]: significantly decreased
BC expressed in mL, effect versus vehicle [3, 4]: no significant difference
NVC amplitude (mmHg and % variation), effect versus vehicle [3, 4]: not significantly modified
NVC amplitude, effect versus basal [3, 4]: did not modify
NVC frequency (NVC/min or % variation), effect versus vehicle [3, 4]: not significantly modified
NVC frequency, effect versus basal [3, 4]: did not affect
ThP expressed in mmHg, effect versus vehicle [3, 4]: not significantly modified
ThP, effect versus basal [3, 4]: no significant effect
ThP expressed in % variation from basal, effect versus vehicle ([3]; 3 mg/kg i.v., 0-90 min entire period, p=0.0504): decreased after Cpd (IA) treatment, the p value was close to the significance
AM (mmHg or % variation), effect versus vehicle [3, 5]: no effect
AM, effect versus basal [3, 5]: did not significantly modify
BC (mL and % variation), effect versus vehicle [3, 5]: no significant difference
NVC amplitude (mmHg and % variation), effect versus vehicle [3, 5]: not significantly modified
NVC amplitude, effect versus basal [3, 5]: without any effect
NVC frequency (NVC/min or % variation), effect versus vehicle [3, 5]: unaffected
NVC frequency, effect versus basal [3, 5]: no significant effect
ThP expressed in % variation from basal, effect versus vehicle [3, 5]: significantly decreased
ThP expressed in mmHg, effect versus vehicle [3, 5]: not significantly modified
ThP, effect versus basal [3, 5]: significantly decreased
BC, effect versus basal ([3]; Cpd (IA) 3 mg/kg i.v., 0-90 min entire period): did not significantly modify
BC, effect versus basal ([3]; Cpd (IA) 3 mg/kg i.v., 60-90 min interval period): neither vehicle nor Cpd (IA) had a significant effect
% of variation from basal values of BC ([3]; Cpd (IA) 30 mg/kg i.g., 0-90 min entire period, vehicle 11±6): −13±6%
AM (mmHg or % variation), effect versus vehicle ([3]; i.g., 0-90 min entire period): not significantly modified
AM, effect versus basal ([3]; i.g., 0-90 min entire period): did not significantly modify
BC expressed in % variation from basal, effect versus vehicle ([3]; i.g., 0-90 min entire period): significantly decreased
BC expressed in mL, effect versus vehicle ([3]; i.g., 0-90 min entire period): no significant difference
NVC amplitude expressed in % variation from basal, effect versus vehicle ([3]; i.g., 0-90 min entire period): remained unaffected
NVC amplitude expressed in mmHg, effect versus vehicle ([3]; i.g., 0-90 min entire period): not significantly modified
NVC amplitude, effect versus basal ([3]; i.g., 0-90 min entire period): did not modify
NVC frequency (NVC/min or % variation), effect versus vehicle ([3]; i.g., 0-90 min entire period): not significantly modified
NVC frequency, effect versus basal ([3]; i.g., 0-90 min entire period): did not affect
ThP expressed in % variation from basal, effect versus vehicle ([3]; i.g., 0-90 min entire period): significantly decreased
ThP expressed in mmHg, effect versus vehicle ([3]; i.g., 0-90 min entire period): not significantly modified
ThP, effect versus basal ([3]; i.g., 0-90 min entire period): did not modify
AM (mmHg or % variation), effect versus vehicle [3, 6]: no effect
AM, effect versus basal [3, 6]: did not significantly modify
BC expressed in % variation from basal, effect versus vehicle [3, 6]: significantly decreased
BC expressed in mL, effect versus vehicle [3, 6]: no significant difference
NVC amplitude expressed in % variation from basal, effect versus vehicle [3, 6]: not significantly modified
NVC amplitude expressed in mmHg, effect versus vehicle [3, 6]: not significantly modified
NVC amplitude, effect versus basal [3, 6]: without any effect
NVC frequency (NVC/min or % variation), effect versus vehicle [3, 6]: unaffected
NVC frequency, effect versus basal [3, 6]: did not affect
ThP expressed in % variation from basal, effect versus vehicle [3, 6]: significantly decreased
ThP expressed in mmHg, effect versus vehicle [3, 6]: not significantly modified
ThP, effect versus basal [3, 6]: significantly decreased
BC, effect versus basal ([3]; i.g., Cpd (IA) 30 mg/kg, mirabegron 10 mg/kg, 0-90 min entire period): significantly decreased
BC, effect versus basal ([3]; i.g., Cpd (IA) 30 mg/kg, mirabegron 10 mg/kg, 60-90 min interval period): significantly decreased
all other cystometric parameters (than BC and ThP), effect versus vehicle ([3]; i.v., conclusions): no effect
